The supplement of paper PMC7341893

How the values were obtained:
Test in all cases: growth (OD600) normalised to reference wells; higher = more growth / less inhibition
SPT14(WT) = tested on: SPT14(WT)
Experimental: (§1)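 S. cerevisiae strains (wild type, SPT14 point-mutant knock-ins, HIP heterozygous and HOP homozygous deletion strains) were grown in rich medium in 96-well plates with 12-point serial dilutions of jawsamycin or clotrimazole (DMSO normalised to 2%). Growth was read as OD600 and normalised within each dilution series (NormOD, % growth). Wells set exactly to 100 are normalisation references and are left out.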

SPT14(H106Y) = tested on: SPT14(H106Y)
Experimental: as §1

HO_HIP = tested on: HO_HIP
Experimental: as §1

SPT14_HIP = tested on: SPT14_HIP
Experimental: as §1

GPI15_HIP = tested on: GPI15_HIP
Experimental: as §1

SPT14(V76F) = tested on: SPT14(V76F)
Experimental: as §1

SPT14(T114A) = tested on: SPT14(T114A)
Experimental: as §1

GPI2_HIP = tested on: GPI2_HIP
Experimental: as §1

GPI1_HIP = tested on: GPI1_HIP
Experimental: as §1

IRE1_HOP = tested on: IRE1_HOP
Experimental: as §1

RLM1_HOP = tested on: RLM1_HOP
Experimental: as §1

HO_HOP = tested on: HO_HOP
Experimental: as §1

HAC1_HOP = tested on: HAC1_HOP
Experimental: as §1

MID2_HOP = tested on: MID2_HOP
Experimental: as §1

MUD2_HOP = tested on: MUD2_HOP
Experimental: as §1

JIP3_HOP = tested on: JIP3_HOP
Experimental: as §1

Clc1ccccc1C(c1ccccc1)(c1ccccc1)n1ccnc1 [Clotrimazole]
growth [%]
Settings	GPI1_HIP	GPI2_HIP	GPI15_HIP	HO_HIP	SPT14(H106Y)	SPT14(T114A)	SPT14(V76F)	SPT14(WT)	SPT14_HIP
0.0599525 µM	–	–	–	–	87.7	89.1	–	86.2	–
0.1259 µM	–	–	–	–	–	–	101	–	–
0.125900179 µM	99.71	101.2	100.7	101	60.9	72	–	69.1	101.3
0.26439 µM	99.45	99.573	99.95	98.3	6.75	33.3	99.4	8.87	99.746
0.55522 µM	92.9	94.15	94.01	94.61	7.18	13.3	104	9.82	91.5
1.16596 µM	10.1	14.5	7.93	8.24	4.48	12.5	97.7	6.88	11.7
2.44852 µM	4.4	2.59	3.69	1.95	5.03	15.9	95.9	6.32	3.86
5.14189 µM	1.82	1.15	1.3	0.55	3.41	12	98.2	4.16	1.8
10.79796998 µM	0.134	0.0555	-0.36	-0.231	1.98	3.16	–	3	0.0343
10.798 µM	–	–	–	–	–	–	4.41	–	–
22.6757 µM	-0.448	-0.447	-0.813	-0.622	2.09	3.52	0.641	3.43	-0.803
47.619 µM	-0.6398	-0.447	-0.839	-0.564	-0.417	0.134	-1.36	-0.421	-0.679
100 µM	1.31	1.041	0.998	1.08	-0.409	0.19	-0.859	-0.41	1.11

C[C@@H]1C[C@H]1/C=C/[C@@H]1C[C@H]1[C@@H]1C[C@H]1[C@@H]1C[C@H]1[C@@H]1C[C@H]1/C=C/C=C/C(=O)NC[C@H]1O[C@@H](N2CCC(=O)NC2=O)[C@H](O)[C@@H]1O [Jawsamycin]
Settings	growth [%]
GPI1_HIP, 0.125900179 µM	95.1
GPI1_HIP, 0.26439 µM	65.4
GPI1_HIP, 0.55522 µM	3.38
GPI1_HIP, 1.16596 µM	0.172
GPI1_HIP, 2.44852 µM	-0.0309
GPI1_HIP, 5.14189 µM	0.123
GPI1_HIP, 10.79796998 µM	-0.0696
GPI1_HIP, 22.6757 µM	-0.0919
GPI1_HIP, 47.619 µM	0.953
GPI1_HIP, 100 µM	4.06
GPI2_HIP, 0.125900179 µM	102
GPI2_HIP, 0.26439 µM	78.2
GPI2_HIP, 0.55522 µM	12.1
GPI2_HIP, 1.16596 µM	0.957
GPI2_HIP, 2.44852 µM	-0.153
GPI2_HIP, 5.14189 µM	-0.208
GPI2_HIP, 10.79796998 µM	-0.242
GPI2_HIP, 22.6757 µM	0.183
GPI2_HIP, 47.619 µM	1.43
GPI2_HIP, 100 µM	3.73
GPI15_HIP, 0.125900179 µM	96
GPI15_HIP, 0.26439 µM	83.9
GPI15_HIP, 0.55522 µM	14.5
GPI15_HIP, 1.16596 µM	0.707
GPI15_HIP, 2.44852 µM	-0.181
GPI15_HIP, 5.14189 µM	-0.594
GPI15_HIP, 10.79796998 µM	-0.329
GPI15_HIP, 22.6757 µM	-0.355
GPI15_HIP, 47.619 µM	2.02
GPI15_HIP, 100 µM	3.35
HAC1_HOP, 0.12590018 µM	72.1
HAC1_HOP, 0.26439 µM	23.7
HAC1_HOP, 0.55522 µM	3.92
HAC1_HOP, 1.16596156 µM	2.26
HAC1_HOP, 2.44852 µM	0.418
HAC1_HOP, 5.14189 µM	0.344
HAC1_HOP, 10.798 µM	1.36
HO_HIP, 0.125900179 µM	100.4
HO_HIP, 0.26439 µM	96.5
HO_HIP, 0.55522 µM	29.9
HO_HIP, 1.16596 µM	5.52
HO_HIP, 2.44852 µM	1.29
HO_HIP, 5.14189 µM	0.138
HO_HIP, 10.79796998 µM	-0.0442
HO_HIP, 22.6757 µM	0.182
HO_HIP, 47.619 µM	5.56
HO_HIP, 100 µM	11.6
HO_HOP, 0.12590018 µM	97
HO_HOP, 0.26439 µM	84
HO_HOP, 0.55522 µM	56
HO_HOP, 1.16596156 µM	15.1
HO_HOP, 2.44852 µM	4.54
HO_HOP, 5.14189 µM	1.38
HO_HOP, 10.798 µM	8.54
IRE1_HOP, 0.12590018 µM	70.1
IRE1_HOP, 0.26439 µM	14.2
IRE1_HOP, 0.55522 µM	2.66
IRE1_HOP, 1.16596156 µM	-0.118
IRE1_HOP, 2.44852 µM	-0.241
IRE1_HOP, 5.14189 µM	-0.264
IRE1_HOP, 10.798 µM	0.8
JIP3_HOP, 0.12590018 µM	64.5
JIP3_HOP, 0.26439 µM	-0.444
JIP3_HOP, 0.55522 µM	-0.584
JIP3_HOP, 1.16596156 µM	-0.756
JIP3_HOP, 2.44852 µM	-0.689
JIP3_HOP, 5.14189 µM	-0.655
JIP3_HOP, 10.798 µM	0.0162
MID2_HOP, 0.12590018 µM	89.4
MID2_HOP, 0.26439 µM	0.809
MID2_HOP, 0.55522 µM	-0.646
MID2_HOP, 1.16596156 µM	-0.903
MID2_HOP, 2.44852 µM	-0.918
MID2_HOP, 5.14189 µM	-0.848
MID2_HOP, 10.798 µM	-0.546
MUD2_HOP, 0.12590018 µM	33.2
MUD2_HOP, 0.26439 µM	0.873
MUD2_HOP, 0.55522 µM	-1.12
MUD2_HOP, 1.16596156 µM	-1.19
MUD2_HOP, 2.44852 µM	-0.498
MUD2_HOP, 5.14189 µM	-0.906
MUD2_HOP, 10.798 µM	-0.454
RLM1_HOP, 0.12590018 µM	88
RLM1_HOP, 0.26439 µM	2.22
RLM1_HOP, 0.55522 µM	-0.308
RLM1_HOP, 1.16596156 µM	-0.482
RLM1_HOP, 2.44852 µM	-0.568
RLM1_HOP, 5.14189 µM	-0.545
RLM1_HOP, 10.798 µM	-0.0157
SPT14(H106Y), 0.0599525 µM	99.9
SPT14(H106Y), 0.125900179 µM	99.6
SPT14(H106Y), 0.26439 µM	96
SPT14(H106Y), 0.55522 µM	91.6
SPT14(H106Y), 1.16596 µM	65.8
SPT14(H106Y), 2.44852 µM	1.98
SPT14(H106Y), 5.14189 µM	-4.83
SPT14(H106Y), 10.79796998 µM	-5.01
SPT14(H106Y), 22.6757 µM	-5
SPT14(H106Y), 47.619 µM	-2.96
SPT14(H106Y), 100 µM	0.649
SPT14(T114A), 0.0599525 µM	96.9
SPT14(T114A), 0.125900179 µM	97.4
SPT14(T114A), 0.26439 µM	92.3
SPT14(T114A), 0.55522 µM	86.4
SPT14(T114A), 1.16596 µM	61
SPT14(T114A), 2.44852 µM	-0.886
SPT14(T114A), 5.14189 µM	-4.03
SPT14(T114A), 10.79796998 µM	-3.95
SPT14(T114A), 22.6757 µM	-3.63
SPT14(T114A), 47.619 µM	-2.26
SPT14(T114A), 100 µM	0.0855
SPT14(V76F), 0.1259 µM	101.9
SPT14(V76F), 0.26439 µM	103
SPT14(V76F), 0.55522 µM	104
SPT14(V76F), 1.16596 µM	96.4
SPT14(V76F), 2.44852 µM	100
SPT14(V76F), 5.14189 µM	99
SPT14(V76F), 10.798 µM	102
SPT14(V76F), 22.6757 µM	102
SPT14(V76F), 100 µM	74.6
SPT14(WT), 0.0599525 µM	80.5
SPT14(WT), 0.125900179 µM	17.9
SPT14(WT), 0.26439 µM	-3.32
SPT14(WT), 0.55522 µM	-3.82
SPT14(WT), 1.16596 µM	-3.97
SPT14(WT), 2.44852 µM	-3.91
SPT14(WT), 5.14189 µM	-3.92
SPT14(WT), 10.79796998 µM	-3.59
SPT14(WT), 22.6757 µM	-3.29
SPT14(WT), 47.619 µM	-1.96
SPT14(WT), 100 µM	-0.804
SPT14_HIP, 0.125900179 µM	108
SPT14_HIP, 0.26439 µM	89.878
SPT14_HIP, 0.55522 µM	21.9
SPT14_HIP, 1.16596 µM	2.72
SPT14_HIP, 2.44852 µM	0.0973
SPT14_HIP, 5.14189 µM	-0.496
SPT14_HIP, 10.79796998 µM	-0.548
SPT14_HIP, 22.6757 µM	0.0487
SPT14_HIP, 47.619 µM	2.81
SPT14_HIP, 100 µM	5.21
